Data published in patent publication US5459064A, “Protease” (Shionogi & Co., Ltd., priority 1990, dated 1995).
Residues, ends and D or L forms follow the SMILES beside them. *: point of attachment. Cbz = O=C(OCc1ccccc1)*; CH2Cl = ClC*

Assays:
[1] = target: BLase (the present enzyme) (Bacillus licheniformis, UniProt P80057); assay: Effect of inhibitors on the present enzyme; assay type: biochemical, Bacillus licheniformis ATCC No. 14580
[2] = test system: oxidized insulin B chain; assay: Cleavage of oxidized insulin B chain, HPLC peptide mapping; assay type: biochemical; conditions: 50 mM ammonium bicarbonate pH 7.8, enzyme/substrate 1/100 (W/W)

Sequence of BLase (the present enzyme) (P80057 95-316): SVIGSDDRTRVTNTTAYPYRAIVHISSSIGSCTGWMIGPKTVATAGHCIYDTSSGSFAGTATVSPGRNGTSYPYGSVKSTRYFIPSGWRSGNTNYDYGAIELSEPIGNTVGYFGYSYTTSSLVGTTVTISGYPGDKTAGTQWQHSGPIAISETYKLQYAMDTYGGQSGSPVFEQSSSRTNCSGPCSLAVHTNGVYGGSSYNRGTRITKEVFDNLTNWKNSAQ

**Q.** With `O=C(O)CN(CCN(CC(=O)O)CC(=O)O)CC(=O)O` [EDTA] as the compound, how does the “Inhibition of the present enzyme” value [1] read?
**A.** partially inhibited

**Q.** And the “Inhibitory effect after addition of metal ions” value [1]?
**A.** completely nullified

**Q.** What about the Maximum inhibition ratio [1] of the same compound?
**A.** approximately 72%

**Q.** With `CC(C)C[C@H](NC(=O)[C@H](Cc1ccccc1)NC(=O)OCc1ccccc1)C(=O)N[C@@H](CCC(=O)O)C(=O)CCl` [Z-Phe Leu Glu CH2 Cl] (Cbz-Phe-Leu-Glu-CH2Cl) as the compound, how does the “Inhibition of the present enzyme” value [1] read?
**A.** completely inhibited

**Q.** “V8 protease: Serine protease from the V8 strain of Staphylococcus aureus, cleaves at the carboxyl terminal of glutamic acid residues” was tested. Which “Action on oxidized insulin B chain (peptide mapping)” value [2] did it give?
**A.** the peptide bonds at the carboxyl termini of the glutamic acid residues were cleaved
